In US20240199676A1, “ANTIVIRAL COMPOUNDS AND METHODS OF MAKING AND USING THE SAME” (Gilead Sciences, Inc., priority 2022, published 2024):

Legend:
Format in all cases: cell-based
[1] = system: Human Rhinovirus 14 (HRV14) in H1-HeLa cells; assay: H1-HeLa HRV-CTG 384-well Assay (Ex. Y), HRV14; conditions: Rhinovirus B, 96 h; H1-HeLa cells, HRV14 MOI 1.0, 4 days, Celltiter-Glo; read-out: EC50 H1-HeLa_HRV14_HRV-CTG 384-well Assay (per Ex Y)
From the text: (§1) Example Y: H1-HeLa HRV-CTG 384-well Assay
(§2) H1-Hela cell line (ATCC, Manassas, VA, Cat #CRL-1958) was maintained in Dulbecco's […] (DMEM) (Corning, New York, NY, Cat #15-018CM) supplemented with 10% fetal bovine serum (FBS) (Hyclone, Logan, UT, Cat #SH30071-03), and 1× Penicillin-Streptomycin-L-Glutamine (Corning, New York, NY, Cat #30-009-CI). Cells were passaged 2 times per week to maintain sub-confluent densities and were used for experiments at passage 5-30. The Human Rhinovirus 1B (HRV1B) (ATCC, Manassas, VA, Cat #VR-1645) , Human Rhinovirus 14 (HRV14) (ATCC, Manassas, VA, Cat #VR-284), and Human Rhinovirus 16 (HRV16) (ATCC, Manassas, VA, Cat #BR-283) was obtained through ATCC. Viral infection was monitored by determining viability of H1-HeLa cells as described below.
(§3) Test molecules are prepared in 100% DMSO in 384-well polypropylene plates (Greiner, Monroe, NC, Cat #784201) with 8 compounds per plate in grouped replicates of 4 at 10 serially diluted concentrations (1:3). The serially diluted compounds were transferred to low dead volume Echo plates (Labcyte, Sunnyvale, CA, Cat #LP-0200).
(§4) The test compounds were spotted to 384-well assay plates (Greiner, Monroe, NC, Cat#781091) at 200 nL per well using an Echo acoustic dispenser (Labcyte, Sunnyvale, CA). H1-HeLa cells were harvested and suspended in DMEM (supplemented with 2% FBS and 1× Penicillin-Streptomycin-L-Glutamine) and seeded to the pre-spotted assay plates at 5,000 cells per well in 30 μL. HRV1B, HRV14, and HRV16 was diluted in DMEM (supplemented with 2% FBS and 1× Penicillin-Streptomycin-L-Glutamine) at 97.1 million Infectious Units (IU) per mL, 151 million IU per mL and 221 million IU per mL respectively. 10 μL of virus per well was added to the assay plates containing cells and compounds, for an MOI of 0.5, 1.0, and 0.25 respectively. The assay plates were incubated for 4 days at 37° C. and 5% CO2. At the end of incubation, Celltiter-Glo (Promega, Madison, WI, Cat #(Ga7573) was prepared. The assay plates and Celltiter-Glo reagent were equilibrated to room temperature for at least 15 minutes. 40 μL per well of Celltiter-Glo reagent was added and the plates were incubated at room temperature for 15 minutes before reading the luminescence signal on an EnVision multimode plate reader (Perkin Elmer, Waltham, MA). Rupintrivir was used as positive control and DMSO was used as negative control. Values were normalized to the positive and negative controls (as 0% and 100% replication, respectively) and data was fitted using non-linear regression analysis by Gilead's dose response tool. The EC50 value for each compound was defined as the concentration reducing viral replication by 50%.

[2] = system: Respiratory syncytial virus recombinant with luciferase (RSV-Luc5) in HEp-2 cells; assay: HEp-2 RSV-Luc5 384-well Assay (EC50 RSVFLUC Hep2-384 v2, Ex. V); conditions: human respiratory syncytial virus, HEp-2, 72 h, read-out: EC50 RSV FLuc Hep-2 384 V2 (per Ex. V)
Procedure, shortened: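 HEp-2 cells (4,000/well) with 10-point 1:3 compound dilutions were infected with RSV-Luc5 at MOI 0.5 and incubated 3 days at 37 °C. Replication was read by One-Glo luminescence and normalized to remdesivir (0%) and DMSO (100%) controls. EC50 is the concentration reducing replication by 50%, from non-linear regression.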

[3] = system: Human Rhinovirus 16 (HRV16) in H1-HeLa cells; assay: H1-HeLa HRV-CTG 384-well Assay (Ex. Y), HRV16; conditions: Rhinovirus A, 96 h; H1-HeLa cells, HRV16 MOI 0.25, 4 days, Celltiter-Glo; read-out: EC50 H1-HeLa_HRV16_HRV-CTG 384-well Assay (per Ex. Y)
From the text: as §1, §2, §3, §4

[4] = system: Human Rhinovirus 1B (HRV1B) in H1-HeLa cells; assay: H1-HeLa HRV-CTG 384-well Assay (Ex. Y), HRV1B; conditions: Rhinovirus A, 96 h; H1-HeLa cells, HRV1B MOI 0.5, 4 days, Celltiter-Glo; read-out: EC50 H1-HeLa_HRV1B_HRV-CTG 384-well Assay (per Ex. Y)
From the text: as §1, §2, §3, §4

`CC(C)(CF)C(=O)OC[C@@]1(C#N)O[C@@H](c2ccc3c(N)ncnn23)[C@H](O)[C@@H]1O` [Compound 29, ((2R,3S,4R,5S)-5-(4-aminopyrrolo[2,1-f][1,2,4]triazin-7-yl)-2-cyano-3,4-dihydroxytetrahydrofuran-2-yl)methyl 3-fluoro-2,2-dimethylpropanoate] showed an EC50 [1] of 16.9 µM, an EC50 [2] of 28.8 µM and an EC50 [3] of 22.7 µM. The EC50 [4] was 9.37 µM.

`CC1(C)CC(C(=O)OC[C@@]2(C#N)O[C@@H](c3ccc4c(N)ncnn34)[C@H](O)[C@@H]2O)C1` [Compound 17, ((2R,3S,4R,5S)-5-(4-aminopyrrolo[2,1-f][1,2,4]triazin-7-yl)-2-cyano-3,4-dihydroxytetrahydrofuran-2-yl)methyl 3,3-dimethylcyclobutane-1-carboxylate] was tested, and the EC50 [1] was 7.83 µM, the EC50 [2] was 19.7 µM and the EC50 [3] was 7.57 µM. For the same compound, the EC50 [4] was 3.2 µM.

For `CC(C)C(=O)OC[C@@]1(C#N)O[C@@H](c2ccc3c(N)ncnn23)[C@H](OC(=O)C(C)C)[C@@H]1OC(=O)C(C)C` [Compound 20, (2R,3S,4S,5S)-5-(4-aminopyrrolo[2,1-f][1,2,4]triazin-7-yl)-2-cyano-2-((isobutyryloxy)methyl)tetrahydrofuran-3,4-diyl bis(2-methylpropanoate)], the EC50 [1] was 12.8 µM, the EC50 [2] was 29.9 µM and the EC50 [3] was 50 µM. The EC50 [4] was 9.63 µM.

For `CC(C)(C)CC(=O)Nc1ncnn2c([C@@H]3O[C@](C#N)(COC(=O)CC(C)(C)C)[C@@H](O)[C@H]3O)ccc12` [Compound 26, ((2R,3S,4R,5S)-2-cyano-5-(4-(3,3-dimethylbutanamido)pyrrolo[2,1-f][1,2,4]triazin-7-yl)-3,4-dihydroxytetrahydrofuran-2-yl)methyl 3,3-dimethylbutanoate], the EC50 [1] was 50 µM, the EC50 [2] was 46.8 µM and the EC50 [3] was 50 µM. The EC50 [4] was 50 µM.

Compound `Cc1ccc(C(=O)OC[C@@]2(C#N)O[C@@H](c3ccc4c(N)ncnn34)[C@H](O)[C@@H]2O)cc1` [Compound 14, ((2R,3S,4R,5S)-5-(4-aminopyrrolo[2,1-f][1,2,4]triazin-7-yl)-2-cyano-3,4-dihydroxytetrahydrofuran-2-yl)methyl 4-methylbenzoate] has an EC50 [1] of 8.17 µM, an EC50 [2] of 22 µM and an EC50 [3] of 23.8 µM. The EC50 [4] was 9.8 µM.

With `CC(C)C(=O)OC[C@@]1(C#N)O[C@@H](c2ccc3c(N)ncnn23)[C@H](O)[C@@H]1O` [Compound 1, ((2R,3S,4R,5S)-5-(4-aminopyrrolo[2,1-f][1,2,4]triazin-7-yl)-2-cyano-3,4-dihydroxytetrahydrofuran-2-yl)methyl isobutyrate] the EC50 [1] was 5.13 µM, the EC50 [2] was 15 µM and the EC50 [3] was 9.31 µM. The EC50 [4] was 3.05 µM.

In the case of `CC1(C(=O)OC[C@@]2(C#N)O[C@@H](c3ccc4c(N)ncnn34)[C@H](O)[C@@H]2O)CCC1` [Compound 24, ((2R,3S,4R,5S)-5-(4-aminopyrrolo[2,1-f][1,2,4]triazin-7-yl)-2-cyano-3,4-dihydroxytetrahydrofuran-2-yl)methyl 1-methylcyclobutane-1-carboxylate], the EC50 [1] is reported as 6.34 µM, the EC50 [2] is reported as 12 µM and the EC50 [3] is reported as 8.9 µM. For the same compound, the EC50 [4] was 3.43 µM.

Compound `CCC(C)(C)C(=O)OC[C@@]1(C#N)O[C@@H](c2ccc3c(N)ncnn23)[C@H](O)[C@@H]1O` [Compound 35, ((2R,3S,4R,5S)-5-(4-aminopyrrolo[2,1-f][1,2,4]triazin-7-yl)-2-cyano-3,4-dihydroxytetrahydrofuran-2-yl)methyl 2,2-dimethylbutanoate] has an EC50 [1] of 24.6 µM, an EC50 [2] of 24.4 µM and an EC50 [3] of 48.2 µM. It also gave an EC50 [4] of 19.2 µM.

`CCC(C)(C)CC(=O)OC[C@@]1(C#N)O[C@@H](c2ccc3c(N)ncnn23)[C@H](O)[C@@H]1O` [Compound 27, ((2R,3S,4R,5S)-5-(4-aminopyrrolo[2,1-f][1,2,4]triazin-7-yl)-2-cyano-3,4-dihydroxytetrahydrofuran-2-yl)methyl 3,3-dimethylpentanoate] gave an EC50 [1] of 50 µM, an EC50 [2] of 12.3 µM and an EC50 [3] of 50 µM. The EC50 [4] was 50 µM.

`CC(=O)OC[C@@]1(C#N)O[C@@H](c2ccc3c(NC(=O)C(C)C)ncnn23)[C@H](O)[C@@H]1O` [Compound 23, ((2R,3S,4R,5S)-2-cyano-3,4-dihydroxy-5-(4-isobutyramidopyrrolo[2,1-f][1,2,4]triazin-7-yl)tetrahydrofuran-2-yl)methyl acetate] was tested, and the EC50 [1] was 49.8 µM, the EC50 [2] was 33.1 µM and the EC50 [3] was 50 µM. The EC50 [4] was 33.5 µM.

`N#C[C@]1(COC(=O)[C@H]2CCC(=O)O2)O[C@@H](c2ccc3c(N)ncnn23)[C@H](O)[C@@H]1O` [Compound 25, ((2R,3S,4R,5S)-5-(4-aminopyrrolo[2,1-f][1,2,4]triazin-7-yl)-2-cyano-3,4-dihydroxytetrahydrofuran-2-yl)methyl (R)-5-oxotetrahydrofuran-2-carboxylate] showed an EC50 [1] of 6.01 µM, an EC50 [2] of 10.3 µM and an EC50 [3] of 8.31 µM. It also gave an EC50 [4] of 3.13 µM.
